From paper PMC6631462, “Quaternary Ammonium Leucine-Based Surfactants: The Effect of a Benzyl Group on Physicochemical Properties and Antimicrobial Activity” (Pharmaceutics, 2019)
Values joined by “and” are separate entries in the source; they are usually repeats but may differ in a detail not shown here. Equal values may be shown once. Read-outs that look alike come from different tables or passages of the source.

Assays:
[1] = test system: erythrocytes; assay: Haemolytic assay; type: cell-based, mice; conditions: concentration causing 50% haemoglobin release from erythrocytes, mean ± SD
Procedure: (§1) Colorectal-carcinoma-derived epithelial Caco-2 cells (European Collection of Cell Cultures) and airway epithelial Calu-3 cells (American Type Culture Collection; ATCC) were cultured in DMEM supplemented with 10% of FBS and 1% of an antibiotic–antimycotic mixture. Erythrocytes were collected from mice blood. The cytotoxicity of the N-benzyl quaternary ammonium surfactants derived from leucine in comparison to the commercial BAC was studied by performing two cytotoxicity assays (MTS and LDH as indicators of metabolic activity and membrane integrity, respectively) and by a haemolytic assay. The assays were conducted as reported in our previous publications. EC50 values from the MTS assay (concentration of surfactant that causes 50% cell death) and the LDH assay (concentration of surfactants that causes 50% LDH release from cells), as well as HC50 values from the haemolytic assay (concentration of surfactants that causes 50% haemoglobin release from erythrocytes) were calculated using a nonlinear regression model (Prism version 5.0, GraphPad Inc., San Diego, CA, USA) as follows:(3) Y=BOTTOM+Top−Bottom/1+10^(LogEC50−x) Hill Slope where Top and Bottom are plateaux in the units of the Y axis.

[2] = test system: Staphylococcus aureus ATCC 25923; assay: Antimicrobial assay, MIC determination (EUCAST); type: cell-based; conditions: for Selectivity index EC50/MIC: MIC S. aureus; for MIC: S. aureus
Procedure: (§2) Bacterial strains were cultured overnight at 35–36 °C in blood agar plates. Minimum inhibitory concentrations (MICs) were determined according to previous reports and following protocols defined by the European Committee on Antimicrobial Susceptibility Testing (EUCAST). MICs against Candida albicans were determined using a similar protocol with some adaptations to the yeast growth and requirements. All tests were done in triplicate. [table]

[3] = test system: Pseudomonas aeruginosa ATCC 27853; assay: Antimicrobial assay, MIC determination (EUCAST); type: cell-based; conditions: for Selectivity index EC50/MIC: MIC P. aeruginosa; for MIC: P. aeruginosa
Procedure: as §2

[4] = test system: Escherichia coli ATCC 25922; assay: Antimicrobial assay, MIC determination (EUCAST); type: cell-based; conditions: for Selectivity index EC50/MIC: MIC E. coli; for MIC: E. coli
Procedure: as §2

[5] = test system: Enterococcus faecalis ATCC 29212; assay: Antimicrobial assay, MIC determination (EUCAST); type: cell-based; conditions: for Selectivity index EC50/MIC: MIC E. faecalis; for MIC: E. faecalis
Procedure: as §2

[6] = Surface tension measurements (De Nouy ring tensiometry); type: physicochemical; conditions: for 10^6 Γmax (surface excess concentration): Gibbs equation from tensiometry; for 10^6 Γmax (surface excess concentration) / CMC / γCMC (surface tension at CMC): 25 °C; for 10^6 Γmax (surface excess concentration) / Amin (area per molecule at water–air interface): mean ± SD; for Amin (area per molecule at water–air interface): derived from Γmax; for CMC / γCMC (surface tension at CMC): ultrapure water, tensiometry, mean ± SD of three replicates
Procedure: Different concentrations for each surfactant were prepared by dissolving the compounds in ultrapure water. Their ability to decrease air–water surface tension was studied at 25 °C using a DCA-100 tensiometer (First Ten Angstrom, Portsmouth, VA, USA) according to the De Nouy ring method. Each recorded surface tension value was the mean of three consecutive measurements. The ‘breakpoint’ of the plot of surface tension versus concentration of surfactant was used to calculate the critical micelle concentration (CMC, i.e., the minimum concentration at which surfactants aggregate to form micelles) and the surface tension at CMC (γCMC). The “breakpoint” is the point of intersection of the two lines fitting the experimental data by a linear regression model (Prism version 5.0, GraphPad Inc., San Diego, CA, USA). Tensiometric measurements allowed for the calculation of an additional two parameters related to the surface behaviour of surfactants. The first is the ‘surface excess concentration’, Γmax, which is a measure of how many surfactant molecules are adsorbed at the air–water interface, which was calculated using the Gibbs equation:(1) Γmax=1/2.303 nRT (δγ/δlogC) where R is the gas constant (8.314 J/mol K); T is the absolute temperature (K); n is equal to 1 for single chain ionic surfactants displaying only one ionisable group; and dγ/d log C can be calculated from the slope of the straight section before the CMC in the plot of surface tension versus concentration of the surfactant.
The other parameter is the area occupied by a single molecule of surfactant at the water–air interface (As), and is derived from Γmax through the equation:(2) Amin= 10^18/NΓmax.
All analyses were performed in triplicate.

[7] = test system: Caco-2 cells; assay: MTS cytotoxicity assay on Caco-2 cells; type: cell-based; conditions: Caco-2, concentration causing 50% reduction of viable cells, mean ± SD
Procedure: as §1

[8] = test system: Candida albicans ATCC 24433; assay: Antimicrobial assay, MIC determination (adapted to yeast); type: cell-based; conditions: for MIC: C. albicans; for Selectivity index EC50/MIC: MIC C. albicans
Procedure: as §2

[9] = test system: Calu-3 cells; assay: LDH release assay on Calu-3 cells; type: cell-based; conditions: Calu-3, concentration causing 50% LDH release, mean ± SD
Procedure: as §1

[10] = test system: Calu-3 cells; assay: MTS cytotoxicity assay on Calu-3 cells; type: cell-based; conditions: Calu-3, concentration causing 50% reduction of viable cells, mean ± SD
Procedure: as §1

[11] = test system: Caco-2 cells; assay: LDH release assay on Caco-2 cells; type: cell-based; conditions: Caco-2, concentration causing 50% LDH release, mean ± SD
Procedure: as §1

[12] = Staphylococcus aureus, ATCC25923, read-out: MIC
[13] = Pseudomonas aeruginosa, ATCC27853, read-out: MIC
[14] = Escherichia coli, ATCC25922, read-out: MIC
[15] = Enterococcus faecalis, ATCC29212, read-out: MIC
[16] = Candida albicans, ATCC24433, read-out: MIC

| Compound | Haemolysis HC50 [1] | Selectivity index EC50/MIC ([2]; EC50 from MTS assay on Caco-2) | Selectivity index EC50/MIC ([2]; EC50 from MTS assay on Calu-3) | MIC [2, 12] | Selectivity index EC50/MIC ([3]; EC50 from MTS assay on Caco-2) | Selectivity index EC50/MIC ([3]; EC50 from MTS assay on Calu-3) | MIC [3, 13] | Selectivity index EC50/MIC ([4]; EC50 from MTS assay on Caco-2) | Selectivity index EC50/MIC ([4]; EC50 from MTS assay on Calu-3) | MIC [4, 14] | Selectivity index EC50/MIC ([5]; EC50 from MTS assay on Calu-3) | MIC [5, 15] | 10^6 Γmax (surface excess concentration) [6] | Amin (area per molecule at water–air interface) [6] | CMC [6] | γCMC (surface tension at CMC) [6] | EC50 ([7]; Homo sapiens) | MIC [8, 16] | Selectivity index EC50/MIC ([8]; EC50 from MTS assay on Caco-2) | Selectivity index EC50/MIC ([8]; EC50 from MTS assay on Calu-3) | also measured |
| --- | --- | --- | --- | --- | --- | --- | --- | --- | --- | --- | --- | --- | --- | --- | --- | --- | --- | --- | --- | --- | --- |
| CCCCCCCCCCOC(=O)C(CC(C)C)[N+](C)(C)Cc1ccccc1 (stereo not shown) [C10 LEU BENZ] | 0.148 ± 0.018 mM | 42.1 | 30.8 | 2 µg/mL and 3.8 µM | 0.6 | 0.5 | > 128 µg/mL and > 248 µM | 1.3 | 0.9 | 64 µg/mL and 124 µM | 15.2 | 4 µg/mL and 7.7 µM | 6.76 ± 0.22 mol/m^2 | 24.09 ± 1.45 A^2 | 1.88 ± 0.16 mM | around 30 mN/m and 31.75 ± 0.09 mN/m | 160 ± 7 µM | 124 µM and 64 µg/mL | 1.3 | 0.9 | EC50 ([9]; Homo sapiens): 187 ± 24 µM; EC50 ([10]; Homo sapiens): 117 ± 5 µM; EC50 ([11]; Homo sapiens): 158 ± 15 µM |
| CCCCCCCCCCCCOC(=O)C(CC(C)C)[N+](C)(C)Cc1ccccc1 (stereo not shown) [C12 LEU BENZ] | 0.054 ± 0.004 mM | 1.5 | 1.0 | 4 µg/mL to 8 µg/mL and 10.6 µM | 0.07 | 0.05 | 128 µg/mL and 235 µM | 0.3 | 0.2 | 32 µg/mL and 58.6 µM | 1.0 | 4 µg/mL to 8 µg/mL and 10.6 µM | 6.10 ± 0.24 mol/m^2 | 27.27 ± 1.34 A^2 | around 1 mM and 0.92 ± 0.11 mM | ~40 mN/m and 40.38 ± 0.13 mN/m | 16 ± 3 µM | 29.3 µM and 16 µg/mL | 0.5 | 0.4 | Selectivity index EC50/MIC ([5]; EC50 from MTS assay on Caco-2): 1.5; EC50 ([9]; Homo sapiens): 19 ± 3 µM; EC50 ([10]; Homo sapiens): 11 ± 2 µM; EC50 ([11]; Homo sapiens): 19 ± 2 µM |
| CCCCCCCCCCCCCCOC(=O)C(CC(C)C)[N+](C)(C)Cc1ccccc1 (stereo not shown) [C14 LEU BENZ] | 0.027 ± 0.006 mM | 5 | 5.4 | 1 µg/mL to 2 µg/mL and 2.6 µM | 0.06 | 0.06 | 128 µg/mL and 223 µM | 0.5 | 0.5 | 16 µg/mL and 27.9 µM | 4.0 | 2 µg/mL and 3.5 µM | 7.39 ± 0.31 mol/m^2 | 22.46 ± 1.11 A^2 | 0.12 ± 0.08 mM | ~40 mN/m and 40.35 ± 0.11 mN/m | 13 ± 2 µM | 13.9 µM and 8 µg/mL | 0.9 | 1.0 | Selectivity index EC50/MIC ([5]; EC50 from MTS assay on Caco-2): 3.7; EC50 ([9]; Homo sapiens): 14 ± 2 µM; EC50 ([10]; Homo sapiens): 14 ± 2 µM; EC50 ([11]; Homo sapiens): 12 ± 2 µM |
| Benzalkonium chloride [BAC, reference compound] | 0.064 ± 0.004 mM | 11.5 | 7.7 | – | 0.4 | 0.2 | – | 2.9 | 1.9 | – | 7.7 | – | 5.35 ± 0.27 mol/m^2 | 31.08 ± 1.60 A^2 | around 1 mM and 1.02 ± 0.06 mM | around 30 mN/m and 31.16 ± 0.05 mN/m | – | – | 2.9 | 1.9 | MIC [2]: 1 mg/L; MIC ([2]; read-out: MIC): 2.9 µM; MIC [3]: 32 mg/L; MIC ([3]; read-out: MIC): 91.8 µM; MIC [4]: 4 mg/L; MIC ([4]; read-out: MIC): 11.5 µM; MIC [5]: 1 mg/L; MIC ([5]; read-out: MIC): 2.9 µM; Selectivity index EC50/MIC ([5]; EC50 from MTS assay on Caco-2): 11.5; EC50 [7]: 33 ± 1 µM; MIC [8]: 4 mg/L; MIC ([8]; read-out: MIC): 11.5 µM; EC50 [9]: 29 ± 5 µM; EC50 [10]: 22 ± 5 µM; EC50 [11]: 48 ± 4 µM |
